{"source": "patent US8192962B2", "about": "“Processes for detecting toxic substances” (Daikin Industries, Ltd., priority 2001, dated 2012)", "test_system": "Transport facilitation protein genes", "assay": "DNA chip mRNA expression in yeast, transport facilitation protein genes (Table 5)", "assay_type": "cell-based, Saccharomyces cerevisiae S288C", "method": "Yeast (Saccharomyces cerevisiae S288C (α SUC2mal mel gap2 CUP1)) were incubated at 25° C. on YPD medium (yeast extract 1%, polypepton 2%, glucose 2%). One of toxic chemical substances was added to the cells at logarithmic growth phase, and the cells were further incubated for two hours. Cells were cultured without any chemical substance in the same condition, and were used as control. Concentrations of the chemical substances were defined to inhibit the growth of the yeast but not lead to death.\nAfter completion of the incubation, the culture was centrifuged to collect the cells. To the cells, sodium acetate buffer (50 mM sodium acetate, 10 mM EDTA, 1% SDS) was added, and the mixture was shaken at 65° C. for five minutes, followed by returning to room temperature, and obtaining the supernatant, of which the procedures were repeated two times. To the supernatant, ½ amount of a solution of phenol/chloroform was added, and the mixture was centrifuged to give a supernatant, which was added with an equal amount of chloroform, and the mixture was centrifuged to give a supernatant. To the supernatant, an equal amount of isopropanol containing 0.3 M sodium acetate was added, and the mixture was allowed to stand at room temperature for 30 minutes, after which the mixture was centrifuged to give a sediment of the whole RNAs. Seventy % ethanol was added to the sediment, and the mixture was again centrifuged to give a sediment, which was then dried and dissolved in water. mRNA was isolated from the whole RNAs as followings. In view of the fact that a poly A chain is attached to the 3′ terminus of mRNA, a polynucleotide having a poly T structure which was immobilized on the surface of latex beads was used to trap the mRNA, and then the mRNA was washed and eluted with spine column (Oligotex-dT30<Super>mRNA Purification Kit, Takara). Reverse transcription of the mRNA was conducted with a reverse transcriptase (Super Script II Reverse Transcriptase; catalogue No. 18064-014, GibcoBRL) using fluorescence-labeled nucleotides to give cDNAs that were introduced with Cy3-dUTP or Cy5-dUTP during the reverse transcription.\nThe labeled cDNAs were dissolved in TE buffer (10mM Tris-HCl/1 mM EDTA, pH8.0), and the solution was dropped on the DNA chip containing the whole genes of yeast (DNA Chip Research Inc. Japan) so that the cDNAs were hybridized on the DNA chip at 65° C. for over 12 hours. The fluoresces intensity of the DNA chip was read with a scanner, and the ratio relative to the fluorescence intensity resulting from the absence of chemical substance was estimated as the following, which is shown in Tables 1 to 9: […]"}
{"compound": "C[S+](C)[O-]", "note": "[(15), dimethylsulfoxide]", "values": [{"measurement": "The level of expressed mRNA in the presence of chemical substance/The level of expressed mRNA in the absence of chemical substance", "setting": "yeast gene YBR052C", "value": 0.7}, {"measurement": "The level of expressed mRNA in the presence of chemical substance/The level of expressed mRNA in the absence of chemical substance", "setting": "yeast gene YIL022W", "value": 2.9}, {"measurement": "The level of expressed mRNA in the presence of chemical substance/The level of expressed mRNA in the absence of chemical substance", "setting": "yeast gene YKL016C", "value": 0.7}, {"measurement": "The level of expressed mRNA in the presence of chemical substance/The level of expressed mRNA in the absence of chemical substance", "setting": "yeast gene YLR081W", "value": 0.7}, {"measurement": "The level of expressed mRNA in the presence of chemical substance/The level of expressed mRNA in the absence of chemical substance", "setting": "yeast gene YPR194C", "value": 0.4}]}
